Laboratory results as given in ChEMBL document CHEMBL1201862, “PubChem BioAssay data set” (2004).
Activity calls are given as the source filed them.

What was measured:
A-375 [1] = test: MITF: Counter assay: A375 proliferation Measured in Cell-Based System Using Plate Reader - 2084-03_Inhibitor_Dose_DryPowder_Activity. [Related pubchem assays (depositor defined):AID488944]; format: functional; conditions: Homo sapiens
A-375 [2] = test: proliferation inhibition in MITF-low A375 cells – cell-based, cherry-pick samples, set 2, counter-screen for MITF modulator project, dose response (AID 540335); format: functional; conditions: Homo sapiens
Vero [3] = test: cells; format: functional; conditions: Chlorocebus sabaeus
[4] = biological target: Beta-2 adrenergic receptor (Homo sapiens, UniProt P07550); test: ADRB2 activation measured by internalization – cell-based, FAP fluorogen, flow cytometry, cherry pick 1, dose response (AID 588763); format: functional
[5] = Counterscreen for activators of the function of SWI/SNF related, matrix associated, actin dependent regulator of chromatin, subfamily a, member 2 (SMARCA2, BRM): Luminescence-based cell-based high throughput dose response assay to identify non-selective compounds using the VP16 reporter assay.; format: functional
[6] = biological target: SWI/SNF-related matrix-associated actin-dependent regulator of chromatin subfamily A member 2 (Homo sapiens, UniProt P51531); test: Luminescence-based cell-based high throughput dose response assay to identify activators of the function of SWI/SNF related, matrix associated, actin dependent regulator of chromatin, subfamily a, member 2 (SMARCA2, BRM).; format: functional
HeLa = test: ATP-based viability loss in HeLa cells – cell-based, CellTiter-Glo luminescence, cherry-pick samples, cytotoxicity control for MITF activator project, dose response (AID 540259); format: functional; conditions: Homo sapiens
Vero [7] = test: mammalian cell viability reduction – secondary assay, cytotoxicity control for West Nile virus antiviral project, dose response (AID 1650); format: functional; conditions: Chlorocebus sabaeus
INS1 = test: INS-1E survival protection against cytokine death – cell-based, luminescence, retest, dose response (AID 449756); format: functional; conditions: Rattus norvegicus;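 further: cell death triggered by IL-1 beta plus TNF-alpha plus IFN-gamma mixture; protective hits raise ATP signal compared with cytokine alone wells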
Vero [8] = test: cells; format: functional, cell-based; conditions: Chlorocebus sabaeus
[9] = HEK-293T cell viability reduction – luminescence, B-cell screen hits, cytotoxicity control for BCR NF-kB inhibitor project, dose response (AID 489021); format: functional, cell-based;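 further: HEK-293T cells carrying an NF-kB luciferase reporter; cells exposed to compound for about 14 hours before viability readout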
[10] = biological target: Microphthalmia-associated transcription factor (Homo sapiens, UniProt O75030); test: reducers of TRPM1 reporter luminescence, concentration series – cell-based, SK-MEL-5, cherry-picked, set 3, MITF inhibitor project, dose response (AID 493073); format: functional;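 further: SK-MEL-5 melanoma cells with luciferase driven by the MITF target TRPM1 promoter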
Sequence of Microphthalmia-associated transcription factor (O75030 whole entry): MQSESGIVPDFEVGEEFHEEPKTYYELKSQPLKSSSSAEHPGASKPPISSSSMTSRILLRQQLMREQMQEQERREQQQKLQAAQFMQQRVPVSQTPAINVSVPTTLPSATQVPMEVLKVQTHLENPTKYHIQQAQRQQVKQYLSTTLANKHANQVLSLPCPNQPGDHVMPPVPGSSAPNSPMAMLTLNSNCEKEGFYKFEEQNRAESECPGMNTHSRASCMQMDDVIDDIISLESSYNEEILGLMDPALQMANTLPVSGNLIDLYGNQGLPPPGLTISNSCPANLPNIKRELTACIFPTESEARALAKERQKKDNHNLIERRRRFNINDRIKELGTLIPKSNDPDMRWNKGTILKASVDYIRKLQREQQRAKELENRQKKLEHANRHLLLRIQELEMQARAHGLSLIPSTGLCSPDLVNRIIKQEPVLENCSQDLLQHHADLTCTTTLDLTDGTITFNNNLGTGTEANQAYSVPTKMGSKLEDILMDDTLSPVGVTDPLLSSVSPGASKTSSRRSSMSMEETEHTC

[11] = viability loss of HMLE_sh_eGFP cells – cell-based, luminescence, counter-screen for HMLE_sh_ECad selective toxicity project, dose response (AID 463074); format: functional, Homo sapiens;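 further: HMLE human mammary epithelial cells expressing control shRNA against eGFP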
[12] = Luminescence Cell-Based Dose Retest to Confirm Inhibitors of Cancer Stem Cells. [Related pubchem assays (depositor defined):AID2717, AID2721]; format: functional; conditions: Homo sapiens
Genome polyprotein = Genome polyprotein (dengue virus type 2, UniProt P29990); test: flavivirus cap methylation enzyme inhibition – biochemical, confirmation dose response, primary screen (AID 588689); format: functional
Aminopeptidase N = biological target: T1, Aminopeptidase N (Plasmodium falciparum FcB1/Columbia, UniProt O96935); test: malaria alanyl aminopeptidase activity blockers – biochemical, fluorogenic H-Leu-NHMec substrate, 1536-well (AID 1445); set-up: species or system Plasmodium falciparum 3D7, 3D7
T1 sequence (O96935 whole entry): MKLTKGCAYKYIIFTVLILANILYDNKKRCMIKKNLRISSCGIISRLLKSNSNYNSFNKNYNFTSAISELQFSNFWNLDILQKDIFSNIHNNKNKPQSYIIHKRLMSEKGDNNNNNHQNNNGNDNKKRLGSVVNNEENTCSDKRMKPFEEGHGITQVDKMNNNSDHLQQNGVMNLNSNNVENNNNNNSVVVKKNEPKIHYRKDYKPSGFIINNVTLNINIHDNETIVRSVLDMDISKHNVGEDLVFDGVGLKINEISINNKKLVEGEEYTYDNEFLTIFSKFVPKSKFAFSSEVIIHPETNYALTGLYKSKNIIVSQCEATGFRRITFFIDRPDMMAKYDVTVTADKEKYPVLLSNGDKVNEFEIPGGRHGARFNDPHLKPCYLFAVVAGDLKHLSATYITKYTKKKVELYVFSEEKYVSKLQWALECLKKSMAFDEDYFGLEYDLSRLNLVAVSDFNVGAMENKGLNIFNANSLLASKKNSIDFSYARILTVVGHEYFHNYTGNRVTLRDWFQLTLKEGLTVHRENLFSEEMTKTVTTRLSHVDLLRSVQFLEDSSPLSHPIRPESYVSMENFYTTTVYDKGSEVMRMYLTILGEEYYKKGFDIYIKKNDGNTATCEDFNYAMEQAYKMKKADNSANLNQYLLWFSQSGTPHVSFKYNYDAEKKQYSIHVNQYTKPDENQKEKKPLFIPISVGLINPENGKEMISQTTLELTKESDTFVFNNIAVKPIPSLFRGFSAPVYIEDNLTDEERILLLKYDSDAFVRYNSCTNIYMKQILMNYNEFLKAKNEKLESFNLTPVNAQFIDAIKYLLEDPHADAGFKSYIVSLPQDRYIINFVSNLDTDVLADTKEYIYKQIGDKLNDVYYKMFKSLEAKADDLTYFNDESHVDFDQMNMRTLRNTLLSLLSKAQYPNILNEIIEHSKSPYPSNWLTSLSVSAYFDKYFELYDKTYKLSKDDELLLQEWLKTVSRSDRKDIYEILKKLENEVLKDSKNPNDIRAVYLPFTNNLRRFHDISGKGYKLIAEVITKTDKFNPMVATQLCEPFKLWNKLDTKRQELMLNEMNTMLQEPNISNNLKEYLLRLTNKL

[13] = biological target: Induced myeloid leukemia cell differentiation protein Mcl-1 (Homo sapiens, UniProt Q07820); format: functional
Sequence of Induced myeloid leukemia cell differentiation protein Mcl-1 (Q07820 whole entry): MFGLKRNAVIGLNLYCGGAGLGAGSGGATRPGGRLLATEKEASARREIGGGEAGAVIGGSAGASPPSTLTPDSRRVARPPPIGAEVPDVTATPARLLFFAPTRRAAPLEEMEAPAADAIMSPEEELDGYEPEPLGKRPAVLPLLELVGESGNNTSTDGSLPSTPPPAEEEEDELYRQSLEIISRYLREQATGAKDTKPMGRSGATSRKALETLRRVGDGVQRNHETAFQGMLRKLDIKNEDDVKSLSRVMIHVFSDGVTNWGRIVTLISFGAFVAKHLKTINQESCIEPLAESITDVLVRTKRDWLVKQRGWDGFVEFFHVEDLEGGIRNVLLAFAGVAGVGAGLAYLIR

Keap1/Nrf2 = Keap1/Nrf2 (Homo sapiens, UniProt Q14145); test: disruptors of Keap1 binding to Nrf2 peptide – biochemical, fluorescence polarization, cherry-picked samples, dose response (AID 588683)
Sequence of Keap1/Nrf2 (Q16236 whole entry): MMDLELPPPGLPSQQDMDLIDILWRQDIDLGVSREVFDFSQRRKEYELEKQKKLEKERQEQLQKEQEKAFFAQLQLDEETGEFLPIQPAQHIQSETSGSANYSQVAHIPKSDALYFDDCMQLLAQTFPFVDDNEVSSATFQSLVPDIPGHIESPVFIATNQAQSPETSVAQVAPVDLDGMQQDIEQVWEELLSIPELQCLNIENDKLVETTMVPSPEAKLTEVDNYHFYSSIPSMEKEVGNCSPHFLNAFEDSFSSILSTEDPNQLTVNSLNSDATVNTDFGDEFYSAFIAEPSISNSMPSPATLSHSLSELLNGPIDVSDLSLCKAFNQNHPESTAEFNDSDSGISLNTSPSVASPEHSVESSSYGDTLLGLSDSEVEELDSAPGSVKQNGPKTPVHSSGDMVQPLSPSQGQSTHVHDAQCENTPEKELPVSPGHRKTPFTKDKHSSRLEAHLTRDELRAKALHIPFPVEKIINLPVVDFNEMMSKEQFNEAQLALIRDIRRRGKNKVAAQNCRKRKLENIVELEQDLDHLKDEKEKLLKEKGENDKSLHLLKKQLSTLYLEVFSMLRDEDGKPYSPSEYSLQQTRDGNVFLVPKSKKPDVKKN
Sequence of Keap1/Nrf2 (Q14145 whole entry): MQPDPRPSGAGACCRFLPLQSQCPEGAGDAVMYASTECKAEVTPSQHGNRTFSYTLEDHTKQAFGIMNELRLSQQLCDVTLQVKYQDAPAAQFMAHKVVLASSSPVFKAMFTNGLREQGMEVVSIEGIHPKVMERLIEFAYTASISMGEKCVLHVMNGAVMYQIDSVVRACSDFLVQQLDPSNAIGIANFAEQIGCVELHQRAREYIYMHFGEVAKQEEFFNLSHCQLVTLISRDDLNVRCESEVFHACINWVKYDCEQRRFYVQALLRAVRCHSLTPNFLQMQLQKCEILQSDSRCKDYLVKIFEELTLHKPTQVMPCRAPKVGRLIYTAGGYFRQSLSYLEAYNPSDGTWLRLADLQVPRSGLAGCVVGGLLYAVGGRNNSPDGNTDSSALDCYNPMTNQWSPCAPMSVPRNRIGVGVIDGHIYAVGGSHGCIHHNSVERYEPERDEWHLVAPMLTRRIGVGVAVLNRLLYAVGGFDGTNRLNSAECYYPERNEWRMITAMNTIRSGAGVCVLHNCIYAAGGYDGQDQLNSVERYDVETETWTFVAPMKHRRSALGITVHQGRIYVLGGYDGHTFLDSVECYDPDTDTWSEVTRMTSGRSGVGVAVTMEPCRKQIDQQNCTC

Trypsin = Trypsin (Sus scrofa, UniProt P00761); test: trypsin protease activity blockade – biochemical, quenched peptide fluorescence, cherry-pick, selectivity assay for Rce1 protease inhibitor project, dose response (AID 488789)
Sequence of Trypsin (P00761 whole entry): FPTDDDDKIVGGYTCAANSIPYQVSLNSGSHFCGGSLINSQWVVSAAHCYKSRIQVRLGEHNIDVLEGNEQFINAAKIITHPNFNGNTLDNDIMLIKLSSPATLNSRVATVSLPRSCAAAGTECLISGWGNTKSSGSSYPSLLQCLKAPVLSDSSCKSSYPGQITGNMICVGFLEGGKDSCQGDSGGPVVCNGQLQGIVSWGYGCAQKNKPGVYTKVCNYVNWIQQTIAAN

[14] = Trypanosoma cruzi growth suppression in host cells – NIH3T3 host cells, beta-gal luminescence, confirmation (AID 2044); format: functional, cell-based;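 further: intracellular parasites grown in NIH/3T3 mouse fibroblasts as host cells; luminescent beta-galactosidase reporter signal from transgenic T. cruzi replicating inside host cells; inhibitors lower the luminescence signal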
[15] = NIH3T3 cell viability loss – ATP luminescence, mouse fibroblasts, counter-screen, dose response (AID 2010); format: functional, cell-based;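 further: cells exposed to compound for about 90 hours before reading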
CAAX prenyl protease 2 = CAAX prenyl protease 2 (Homo sapiens, UniProt Q9Y256); test: inhibition of Ras-converting CAAX protease Rce1 – biochemical, yeast membranes, quenched-peptide fluorescence, cherry-pick, dose response (AID 588849)
Sequence of CAAX prenyl protease 2 (Q9Y256 whole entry): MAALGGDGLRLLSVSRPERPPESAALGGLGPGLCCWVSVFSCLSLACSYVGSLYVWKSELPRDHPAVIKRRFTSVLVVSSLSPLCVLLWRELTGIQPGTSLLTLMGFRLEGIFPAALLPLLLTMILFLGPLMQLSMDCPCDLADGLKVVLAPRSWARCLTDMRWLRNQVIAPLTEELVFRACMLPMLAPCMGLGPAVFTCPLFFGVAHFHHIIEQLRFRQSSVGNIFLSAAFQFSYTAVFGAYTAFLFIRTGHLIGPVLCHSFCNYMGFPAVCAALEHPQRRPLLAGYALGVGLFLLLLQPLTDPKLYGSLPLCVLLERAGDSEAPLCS

Escherichia coli [16] = test: microbe, parasite or virus in culture
[17] = biological target: Dual specificity tyrosine-phosphorylation-regulated kinase 1A (Rattus norvegicus, UniProt Q63470); format: biochemical, Homo sapiens
[18] = fluconazole-exposed Candida albicans growth modulators – fluorescence, retest, confirmation (AID 2467); format: functional, cell-based
[19] = biological target: ATP-dependent molecular chaperone HSP82 (Candida albicans (strain WO-1) (Yeast), UniProt C4YTQ8); test: steroid-induced GRE reporter decrease in yeast – S. cerevisiae, luminescence, Hsp90 inhibitor project, dose response (AID 2400); format: functional, cell-based;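 further: beta-galactosidase luminescence from glucocorticoid response element reporter as proxy for Hsp90 function; inhibitor potency where signal loss means Hsp90 inhibition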
Sequence of ATP-dependent molecular chaperone HSP82 (C4YTQ8 whole entry): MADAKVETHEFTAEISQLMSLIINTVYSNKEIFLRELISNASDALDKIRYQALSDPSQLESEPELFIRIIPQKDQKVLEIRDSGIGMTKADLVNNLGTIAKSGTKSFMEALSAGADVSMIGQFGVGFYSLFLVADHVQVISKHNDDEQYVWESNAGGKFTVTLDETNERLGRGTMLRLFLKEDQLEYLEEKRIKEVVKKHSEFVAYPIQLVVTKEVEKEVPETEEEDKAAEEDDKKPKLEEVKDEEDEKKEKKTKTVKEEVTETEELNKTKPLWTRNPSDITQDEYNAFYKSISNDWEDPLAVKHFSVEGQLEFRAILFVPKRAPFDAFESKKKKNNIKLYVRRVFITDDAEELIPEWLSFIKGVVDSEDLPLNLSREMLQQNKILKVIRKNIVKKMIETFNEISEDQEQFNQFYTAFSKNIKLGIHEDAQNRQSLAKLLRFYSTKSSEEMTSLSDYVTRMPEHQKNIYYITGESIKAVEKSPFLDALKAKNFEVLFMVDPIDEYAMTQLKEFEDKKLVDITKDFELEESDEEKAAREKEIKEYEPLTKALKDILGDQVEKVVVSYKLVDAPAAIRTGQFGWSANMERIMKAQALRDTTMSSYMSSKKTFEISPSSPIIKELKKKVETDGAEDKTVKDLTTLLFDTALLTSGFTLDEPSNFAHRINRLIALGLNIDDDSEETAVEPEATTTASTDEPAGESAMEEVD

[20] = NIH-3T3 fibroblast cytotoxicity, dose response, cytotoxicity control, cell-based, fluorescence, Alamar Blue, secondary assay (AID 2327); format: functional;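 further: NIH-3T3 mouse fibroblasts cultured with fluconazole at 8 µg/mL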
Streptococcus = test: GAS UMAA2166 growth inhibition – luminescence, BacTiterGlo, counter-screen for streptokinase expression inhibitor project, dose response (AID 1915); format: functional, organism-based;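 further: potency for reduction of bacterial viability or growth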
[21] = test system: Streptococcus sp. 'group A'; test: Streptococcus pyogenes SK(-)GAS viability under kanamycin – luminescence, BacTiterGlo, confirmation, counter-screen for streptokinase expression inhibitor project, dose response (AID 1900); format: functional, organism-based
[22] = biological target: Serine/threonine-protein phosphatase (Candida dubliniensis (strain CD36 / CBS 7987 / NCPF 3949 / NRRLY-17841) (Yeast), UniProt B9W6M3); test: blockers of CaCl2-induced CDRE-lacZ signaling – S. cerevisiae, luminescence, secondary, dose response (AID 2388); format: functional, cell-based;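 further: yeast reporter cells carrying a calcineurin-responsive lacZ construct stimulated with calcium chloride; luminescent beta-galactosidase reporter signal in whole cells rather than isolated phosphatase activity; potency for inhibition where a drop in reporter signal means calcineurin blockade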
Sequence of Serine/threonine-protein phosphatase (B9W6M3 whole entry): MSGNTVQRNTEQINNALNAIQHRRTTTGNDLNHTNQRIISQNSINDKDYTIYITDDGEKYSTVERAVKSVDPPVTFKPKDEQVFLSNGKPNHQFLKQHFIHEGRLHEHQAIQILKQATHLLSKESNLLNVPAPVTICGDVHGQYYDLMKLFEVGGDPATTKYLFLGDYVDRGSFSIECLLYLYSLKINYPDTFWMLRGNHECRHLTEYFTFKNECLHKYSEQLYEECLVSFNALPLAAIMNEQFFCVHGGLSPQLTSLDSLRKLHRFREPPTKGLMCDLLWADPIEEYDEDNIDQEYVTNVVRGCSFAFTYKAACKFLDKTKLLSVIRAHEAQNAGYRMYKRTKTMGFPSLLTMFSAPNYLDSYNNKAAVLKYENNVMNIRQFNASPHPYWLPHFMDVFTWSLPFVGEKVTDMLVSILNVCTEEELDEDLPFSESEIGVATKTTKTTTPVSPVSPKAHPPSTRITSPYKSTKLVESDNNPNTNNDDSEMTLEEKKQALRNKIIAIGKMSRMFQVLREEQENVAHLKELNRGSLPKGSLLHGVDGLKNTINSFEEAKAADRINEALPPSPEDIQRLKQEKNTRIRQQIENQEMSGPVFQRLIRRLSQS

[23] = MIN6 cell viability loss – mouse insulinoma, cytotoxicity control, dose response (AID 2122); format: functional;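 further: confirmatory high-throughput counterscreen run to flag cytotoxic compounds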
[24] = decrease of insulin promoter-GFP reporter – imaging, high-content screening, mouse beta cells (AID 1628); format: functional; conditions: MIN6
cells = format: functional
Escherichia coli [25] = test: microbe, parasite or virus in culture; remark: listed apart in the source
HEK293 [26] = test: cells; conditions: Homo sapiens
HEK293 [27] = test: cells; conditions: Homo sapiens; remark: listed apart in the source
Beta-galactosidase = Beta-galactosidase (Escherichia coli, UniProt Q8VNN2); test: PubChem AID 485352; format: functional
Sequence of Beta-galactosidase (Q8VNN2 whole entry): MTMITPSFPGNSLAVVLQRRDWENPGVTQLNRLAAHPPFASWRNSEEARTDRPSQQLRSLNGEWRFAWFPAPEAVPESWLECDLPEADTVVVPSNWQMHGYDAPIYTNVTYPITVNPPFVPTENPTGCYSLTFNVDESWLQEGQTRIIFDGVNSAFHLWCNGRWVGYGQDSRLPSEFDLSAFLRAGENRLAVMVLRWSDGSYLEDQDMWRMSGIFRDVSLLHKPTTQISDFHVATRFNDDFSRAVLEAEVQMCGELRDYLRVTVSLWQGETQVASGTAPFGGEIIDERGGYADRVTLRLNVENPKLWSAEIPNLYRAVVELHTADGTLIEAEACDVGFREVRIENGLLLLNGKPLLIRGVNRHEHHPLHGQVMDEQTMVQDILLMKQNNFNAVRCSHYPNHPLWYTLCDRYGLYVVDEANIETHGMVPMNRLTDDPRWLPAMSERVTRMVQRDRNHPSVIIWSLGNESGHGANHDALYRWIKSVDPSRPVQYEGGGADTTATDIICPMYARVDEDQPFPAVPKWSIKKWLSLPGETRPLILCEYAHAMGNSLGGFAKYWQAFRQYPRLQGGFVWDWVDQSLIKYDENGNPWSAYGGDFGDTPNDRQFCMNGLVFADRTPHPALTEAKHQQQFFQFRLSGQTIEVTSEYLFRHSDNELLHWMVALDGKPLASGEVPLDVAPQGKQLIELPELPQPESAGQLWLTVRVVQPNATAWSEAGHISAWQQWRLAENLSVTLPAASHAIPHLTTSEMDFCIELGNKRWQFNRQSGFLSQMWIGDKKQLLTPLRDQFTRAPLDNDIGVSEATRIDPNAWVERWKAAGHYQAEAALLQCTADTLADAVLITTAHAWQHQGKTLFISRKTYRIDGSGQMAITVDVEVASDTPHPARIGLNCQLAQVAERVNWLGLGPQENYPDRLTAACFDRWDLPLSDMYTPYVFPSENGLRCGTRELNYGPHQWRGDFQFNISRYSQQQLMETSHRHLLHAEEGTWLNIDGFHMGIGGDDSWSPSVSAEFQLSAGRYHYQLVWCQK

[28] = biological target: T2, Type-1 angiotensin II receptor (Homo sapiens, UniProt P30556); test: antagonism of angiotensin II type 1 receptor – cell-based, uHTS hits, selectivity assay for APJ receptor antagonist project, dose response (AID 463214); format: functional;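 further: antagonist potency against angiotensin II stimulated AT1 response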
T2 sequence (P30556 whole entry): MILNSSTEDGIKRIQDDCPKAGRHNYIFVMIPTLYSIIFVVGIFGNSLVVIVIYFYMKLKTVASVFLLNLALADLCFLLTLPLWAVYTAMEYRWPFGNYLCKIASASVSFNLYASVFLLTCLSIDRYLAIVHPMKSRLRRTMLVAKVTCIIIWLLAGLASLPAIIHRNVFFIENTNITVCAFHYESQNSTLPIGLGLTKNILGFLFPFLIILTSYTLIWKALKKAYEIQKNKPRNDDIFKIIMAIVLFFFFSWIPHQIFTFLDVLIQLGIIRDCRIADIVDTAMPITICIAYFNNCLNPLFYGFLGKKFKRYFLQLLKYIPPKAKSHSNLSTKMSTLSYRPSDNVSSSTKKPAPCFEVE

CCN1CCN(CCCNC(=O)c2ccc3c(Cl)c4c(nc3c2)CCCC4)CC1
AC50 (A-375 [1]): > 11 µM (active) | AC50 (A-375 [2]): > 11 µM (active) | CC50 (Vero [3]): 18.7 µM (active)

Cc1ccc(NC(=O)C(c2ccc(Cl)cc2)N2CCCCC2)cc1 (stereo not given)
EC50 [4]: 2.99 µM (active)

Cc1nc(COC(=O)c2c(C)nn(-c3ccccc3)c2C)cs1
EC50 [5]: > 91.1 µM (inactive) | EC50 [6]: > 91.1 µM (inactive) | AC50 (HeLa): 76 µM (active)

Cc1nc2ccccn2c1C(=O)/C=C/c1cccc([N+](=O)[O-])c1
CC50 (Vero [7]): 5.91 µM (active) | AC50 (INS1): 8.14 µM (active) | IC50 (Vero [8]): 17.2 µM (active) | AC50 (A-375 [1]): > 35 µM (active) | IC50 [9]: > 80 µM (inactive) | AC50 (A-375 [2]): > 35 µM (active) | AC50 [10]: 6.9 µM (active) | AC50 [11]: 56.9 µM (active) | CC50 (Vero [3]): 24 µM (active) | AC50 [12]: 26.6 µM (active)

O=C1Nc2ccc(Br)cc2/C1=C1/SC(=S)N(NS(=O)(=O)c2ccccc2)C1=O
IC50 (Genome polyprotein): 23.6 µM (active) | IC50 (Aminopeptidase N): < 1 µM (active) | IC50 [13]: 3 µM (not active) | AC50 (Keap1/Nrf2): 12.2 µM (active)

COc1ccc(/C=C/c2nc3ccccc3n2Cc2ccccc2OC)cc1
AC50 (Trypsin): 3.43 µM (active) | EC50 [14]: 0.663 µM (active) | EC50 [15]: > 60 µM (inconclusive) | AC50 (CAAX prenyl protease 2): 3.33 µM (active)

COC(=O)Nc1ccc2c(c1)N(C(=O)CCN1CCOCC1)c1ccccc1S2
AC50 (Escherichia coli [16]): 50.2 µM (active)

Cc1sc(NC(=O)c2ccco2)nc1-c1ccccc1
AC50 [17]: 3.67 µM (active)

COc1ccc(C(=O)NC(=S)NNC(=O)c2ccc(C)cc2)cc1
EC50 [18]: 1.12 µM (active) | EC50 [19]: 5.92 µM (active) | EC50 [20]: > 150 µM (inactive) | EC50 (Streptococcus): 6.72 µM (active) | EC50 [21]: 0.361 µM (active) | EC50 [22]: > 180 µM (inactive) | CC50 (Vero [3]): > 25 µM (active)

CCOC(=O)C1=C(C)c2ccccc2OC1(C(=O)OCC)C(C)C (stereo not given)
AC50 (Escherichia coli [16]): 379 µM (active)

Cc1ccc(C(C)C)c(OCc2n[n+](CC(=O)c3ccc(OC(F)F)cc3)c3n2CCCCC3)c1
EC50 [18]: 0.74 µM (active) | IC50 [23]: 1.13 µM (active) | AC50 (INS1): 3.09 µM (active) | EC50 [20]: > 150 µM (inactive) | AC50 (A-375 [2]): 20.1 µM (active) | AC50 [10]: 9.17 µM (active) | IC50 [24]: 1.27 µM (active) | AC50 [12]: 5.68 µM (active)

C/C=C(/C)C(=O)O[C@H]1[C@@H](O)c2c(ccc3ccc(=O)oc23)OC1(C)C
AC50 (CAAX prenyl protease 2): 24.9 µM (active)

CNC(=S)N1CCN(c2c(F)cc3c(=O)c(C(=O)O)cn(C4CC4)c3c2OC)CC1C (stereo not given)
IC50 (cells): 2.57 µM (active) | EC50 (Streptococcus): 0.229 µM (active) | EC50 [21]: 0.179 µM (active) | AC50 (Escherichia coli [25]): 1.44 µM (active)

Cn1c(-c2ncc(F)cc2F)cc2onc(-c3c(F)cccc3Cl)c2c1=O
AC50 (HeLa): 98 µM (active)

Cc1oc2ncnc(N)c2c1C
AC50 [17]: 1.4 µM (active)

NC(Cc1ccc(C(F)(F)F)cc1)c1csc(NC(=O)Nc2ccccc2Oc2ccccc2)n1 (stereo not given)
EC50 (HEK293 [26]): > 59.6 µM (inactive) | EC50 (HEK293 [27]): > 59.6 µM (inactive)

CC(C)NC(=S)N/N=C1\CCCCC1C1CCCCC1 (stereo not given)
EC50 (Beta-galactosidase): > 40 µM (inactive) | IC50 [28]: > 40 µM (not active)

COC(=O)C1C(O)C(C)C(O)C(C)(O)/C=C\C=C(/C)C(=O)Nc2c(C)c(OC(C)=O)c3c(c2O)C(=O)C(C)=C2OCOC(=C23)/C(C)=C/C(C)(O)C(O)C(C)C1O (stereo not given)
AC50 (Escherichia coli [25]): > 150 µM (inactive)
